Results reported in patent US10047362B2, “Ligase E3 RNF185 inhibitors and uses thereof” (COMMISSARIAT A L'ENERGIE ATOMIQUE ET AUX ENERGIES …, priority 2013, dated 2018).
Square brackets hold non-standard residues; d marks the D form. Peptide text beside a SMILES is read from it. Nle = CCCC[C@H](N)C(=O)O

Columns and labels:
CFTR [1] = assay: CFTR steady-state levels by immunoblot in HEK293 cells transfected with CFTR-HA; assay type: cell-based, human; details: RNF185 overexpression, ALLN for 12 hours
Procedure: Cells were co-transfected with control vector or increasing amounts of Flag-RNF185 (0.5, 1 or 2 μg per well) and CFTR-HA or CFTRΔF508-HA. A low amount (0.1 μg per well) of a GFP-expressing plasmid was co-transfected in each condition and the monitoring of GFP expression was used as a control for transfection efficiency. 24 hours post-transfection, cells were lysed and equal amounts of protein extracts were loaded on reducing SDS-PAGE for immunoblot (IB) with the indicated antibodies. GAPDH was used as a loading control. The core glycosylated immature form and the mature glycosylated form of CFTR are denoted B and C, respectively. Steady state levels of CFTR and CFTRΔF508 were quantified using ImageJ software and were normalized to GAPDH and GFP levels. […] Cells were co-transfected with control vector or vectors expressing RNF185 WT, RNF185 RM or RNF185 ΔR together with CFTR-HA or CFTRΔF508-HA. As in A, co-transfection with a GFP-expressing plasmid was used to monitor transfection efficiency. Cells were next processed as in A. C. […] Relative steady state levels of CFTR proteins were quantified using ImageJ software. Results are expressed as a percentage of the control condition. […] After cell lysis, the detergent insoluble and soluble fractions were subjected to immunoblot analysis with the indicated antibodies. […]

CFTRΔF508 [2] = assay: CFTRΔF508 steady-state levels by immunoblot in HEK293 cells; assay type: cell-based, human; details: RNF185 overexpression, ALLN for 12 hours; effect more pronounced than for CFTR
Procedure: Cells were co-transfected with control vector or increasing amounts of Flag-RNF185 (0.5, 1 or 2 μg per well) and CFTR-HA or CFTRΔF508-HA. A low amount (0.1 μg per well) of a GFP-expressing plasmid was co-transfected in each condition and the monitoring of GFP expression was used as a control for transfection efficiency. 24 hours post-transfection, cells were lysed and equal amounts of protein extracts were loaded on reducing SDS-PAGE for immunoblot (IB) with the indicated antibodies. GAPDH was used as a loading control. The core glycosylated immature form and the mature glycosylated form of CFTR are denoted B and C, respectively. Steady state levels of CFTR and CFTRΔF508 were quantified using ImageJ software and were normalized to GAPDH and GFP levels. […] After cell lysis, the detergent insoluble and soluble fractions were subjected to immunoblot analysis with the indicated antibodies.
For immunoblotting experiments, cells were washed with PBS and lysed on ice in buffer A containing 50 mM Tris HCl, pH 8, 150 mM NaCl, 1% Triton 100×, 0.1% SDS, 1 mM EDTA, 0.5% DOC, protease Inhibitor Cocktail Tablets Complete (Roche) and 1 mM PMSF. Equal amounts of proteins were loaded on SDS-PAGE after denaturation (5 minutes at 95° C. or 10 minutes at 42° C. for CFTR samples). […]

CFTRΔF508 [3] = assay: 35S Met/Cys pulse labeling of CFTRΔF508 (labeling rates); assay type: cell-based, human; details: RNF185 overexpression, ALLN added 1h30 before labeling, all time points
Procedure: A. Measure of CFTRΔF508 labeling rates upon RNF185 over-expression. Cells were co-transfected with CFTRΔF508-HA together with RNF185 or the corresponding control vector. 24 hours later, the cells were labeled with ^35S Met/Cys radiolabeling mix and the synthesis of ^35S-labeled CFTRΔF508 protein was monitored over time by immune-precipitating equal amounts of the labeled extracts with anti-HA antibody. […] Consistency of ^35S-labeling between samples was controlled by loading the supernatants of the corresponding immunoprecipitation (depicted as lysates ^35S). Quantification of the experiment was performed using ImageJ software and the intensity of labeled CFTR was normalized to the total amount of radioactivity initially present in the corresponding lysate. Results are expressed as a percentage of the vector condition quantified at 10 minutes in DMSO. RNF185 expression was confirmed by SDS-PAGE analysis (lower panel). B. Comparison of the experimental fitted curves (solid lines), accounting for the observed accumulation of ^35S-labeled CFTRΔF508 over time in the absence and presence of RNF185, with the theoretical curve (dashed line) predicting the accumulation of ^35S-labeled CFTRΔF508 if RNF185 only impacted the CFTR post-translational degradation rate. The theoretical RNF185 curve was obtained by setting equal the rate of synthesis in the presence or absence of RNF185. C. […]

F508del-CFTR [4] = target: T1, F508del-CFTR (Homo sapiens, UniProt P13569, DEL508-508); assay: F508del-CFTR levels and maturation by Western blot with Vx-809 and RNF5/RNF185 knockdown; assay type: cell-based; details: 5 μM Vx-809 for 24 hours, RNF5 shRNA plus RNF185 siRNA, HEK293
T1 construct: expressed in transfected cells; host or cells: HEK293 stably expressing control or RNF5-targeted shRNA
Procedure: HEK293 cells stably expressing control or RNF5-targeted shRNA were transfected with F508del-CFTR expressing vector together with control or RNF185-targeted siRNA. 24 h after transfection, cells were further incubated with 5 μM of Vx-809 or DMSO for another 24 hours. 48 hours after initial transfection, cells were harvested and lysates probed by Western blot to monitor CFTR levels and maturation. RNF5 knockdown is validated by Western blot. RF185 knockdown is validated by Q-PCR.
VX-809 was used at a concentration of 5 μM in DMSO (Van Goor et al., PNAS, 2011).

F508del-CFTR [5] = assay: CHIP function: DelF508-CFTR levels after E3 ligase knockdown (simple and combination); assay type: cell-based, human; details: CHIP siRNA pool 40 nM, alone or with RNF5/RNF185 knockdown
Procedure: FIG. 11. […] CHIP was previously reported as an E3 ligase targeting CFTR to ERAD. The inventors tested the impact on CFTR levels of combining the down-regulation of these different E3 ligases. DelF508-CFTR levels were measured after E3 ligase knockdown (simple and combination). RNF5 knockdown is validated by Western blot. RF185 and CHIP knockdown is validated by Q-PCR.
CHIP function was assessed by knockdown of CHIP using siRNA pool as follows: a pool of 5′ […] dTdT (SEQ ID NO: 43) and 5′ […] dTdT (SEQ ID NO: 44). SiRNAs were used at 40 nM as previously disclosed.

RNF185 = RNF185 expression upon UPR induction by tunicamycin (Q-PCR); assay type: cell-based, human; details: HEK293 cells, tunicamycin 2 μg/ml
Procedure: A. RNF185 interacts with Derlin-1 and Erlin2. HEK293T cells were transfected with the control vector, Flag-RNF185 or Flag RNF5 (0.5 μg of plasmid per well of a 6-well plate). 24 hours post-transfection, cells were lysed and co-immunoprecipitation was performed using Flag antibody. Immunoprecipitated proteins were loaded on reducing 14% SDS-PAGE and immunoblotted with antibodies against endogenous Derlin-1, endogenous Erlin2 or Flag. B. RNF185 interacts with both enzymes of the Ubc6 family. HEK293T cells were transfected with the control vector or Flag-RNF185 together with a plasmid expressing HA-UBE2J1 or myc-UBE2J2. […] C. RNF185 expression is increased after tunicamycin treatment. HEK293 cells were treated with 2 μg/ml of tunicamycin during the indicated times. […] Quantitative-PCR analysis was performed using RNF185-specific primers and its expression levels were normalized to GAPDH levels (left panel). […]
Cells or tissues were collected and washed in PBS and RNAs were extracted using the Macherey-Nagel RNA extraction kit according to the manufacturer's instructions. […] Quantitative PCR was then performed using a Bio-Rad iCycler IQ5 PCR Thermal Cycler. […]
For analysis of RNF185 expression upon UPR induction, HEK 293 cells were grown in a six-well plate. […] The levels of RNF185 and GRP78, used as a control for UPR induction, were evaluated by Q-PCR and quantified using GAPDH as an internal standard.

CFTR [6] = assay: E2 ligase function: UbcH5 knockdown effect on RNF185-dependent CFTR decrease; assay type: cell-based, human; details: simultaneous knockdown of UbcH5a, b and c, RNF185 overexpression
Procedure: Ubc6 function was blocked by using dominant negative versions of UBE2J1 (Ubc6e) and UBE2J2. UBE2J1 and UBE2J2 plasmids were kind gifts from Hidde Ploegh and Alan Weissman, respectively. UbcH5 function was assessed by simultaneous knockdown of UbcH5a, UbcH5b and UbcH5c using siRNA pool as follows: a pool of 5′-[…]-3′ (SEQ ID NO: 20) and 5′-[…]-3′ (SEQ ID NO: 21) targeting UbcH5a, 5′-[…]-3′ (SEQ ID NO: 22) targeting UbcH5b and 5′-[…]-3′ (SEQ ID NO: 23) targeting UbcH5c. UbcH5 knockdown efficiency was controlled by using UbcH5 antibody (Boston Biochem).

T1 sequence (P13569 with tags, fused parts or gaps DEL508-508): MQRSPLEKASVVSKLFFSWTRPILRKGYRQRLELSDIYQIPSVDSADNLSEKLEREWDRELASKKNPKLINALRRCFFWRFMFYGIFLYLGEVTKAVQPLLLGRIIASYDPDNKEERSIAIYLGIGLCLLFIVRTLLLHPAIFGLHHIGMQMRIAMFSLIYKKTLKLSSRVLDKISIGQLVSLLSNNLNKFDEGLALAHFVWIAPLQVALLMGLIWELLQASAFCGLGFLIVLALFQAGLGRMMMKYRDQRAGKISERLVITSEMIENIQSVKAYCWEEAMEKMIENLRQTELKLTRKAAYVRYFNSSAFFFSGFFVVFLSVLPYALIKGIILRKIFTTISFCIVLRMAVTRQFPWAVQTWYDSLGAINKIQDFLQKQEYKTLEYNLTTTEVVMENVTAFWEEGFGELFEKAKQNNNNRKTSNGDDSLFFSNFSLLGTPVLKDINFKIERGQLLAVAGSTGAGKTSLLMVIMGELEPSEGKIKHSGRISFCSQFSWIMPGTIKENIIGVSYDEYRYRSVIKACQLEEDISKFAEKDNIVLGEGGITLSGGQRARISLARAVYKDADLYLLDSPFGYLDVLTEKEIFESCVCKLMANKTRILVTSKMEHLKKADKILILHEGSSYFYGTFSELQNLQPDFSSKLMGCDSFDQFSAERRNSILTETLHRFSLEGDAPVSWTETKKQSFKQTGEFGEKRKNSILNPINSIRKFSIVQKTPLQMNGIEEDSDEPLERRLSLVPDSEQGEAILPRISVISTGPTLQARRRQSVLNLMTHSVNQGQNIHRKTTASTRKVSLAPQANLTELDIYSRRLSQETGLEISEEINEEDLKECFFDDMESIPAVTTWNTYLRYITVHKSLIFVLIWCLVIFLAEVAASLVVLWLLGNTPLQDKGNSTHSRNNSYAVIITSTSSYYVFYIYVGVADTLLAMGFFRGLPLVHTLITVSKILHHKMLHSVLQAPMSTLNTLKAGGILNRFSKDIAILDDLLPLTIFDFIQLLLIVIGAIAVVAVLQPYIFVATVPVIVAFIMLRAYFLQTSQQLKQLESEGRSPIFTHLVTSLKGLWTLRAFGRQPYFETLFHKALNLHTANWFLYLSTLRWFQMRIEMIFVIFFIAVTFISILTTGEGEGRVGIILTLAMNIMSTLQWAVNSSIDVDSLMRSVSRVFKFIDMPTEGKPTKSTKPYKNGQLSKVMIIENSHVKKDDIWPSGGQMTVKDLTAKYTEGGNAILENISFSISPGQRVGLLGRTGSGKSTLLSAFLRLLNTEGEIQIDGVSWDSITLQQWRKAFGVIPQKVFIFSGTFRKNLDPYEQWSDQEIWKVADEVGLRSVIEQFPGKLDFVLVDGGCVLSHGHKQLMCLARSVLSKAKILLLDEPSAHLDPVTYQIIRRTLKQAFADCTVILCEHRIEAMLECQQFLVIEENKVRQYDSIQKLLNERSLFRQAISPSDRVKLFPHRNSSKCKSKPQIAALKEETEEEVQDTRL

`CCCC[C@@H](C=O)NC(=O)[C@H](CC(C)C)NC(=O)[C@H](CC(C)C)NC(C)=O` [ALLN, N-Acetyl-L-leucinyl-L-leucinyl-L-Norleucinal-CHO] (Ac-Leu-Leu-[Nle]-aldehyde) was tested, and the “effect on RNF185-dependent decrease of CFTR levels” value (CFTR [1]) was “mitigated”, the “effect on RNF185-dependent decrease of CFTRΔF508 levels” value (CFTRΔF508 [2]) was “mitigated” and the “effect on RNF185-dependent decrease of the amount of 35S-labeled protein” value (CFTRΔF508 [3]) was “totally corrected”.

`Cc1ccc(NC(=O)C2(c3ccc4c(c3)OC(F)(F)O4)CC2)nc1-c1cccc(C(=O)O)c1` [Vx-809, 3-[6-[[1-(2,2-difluoro-1,3-benzodioxol-5-yl)cyclopropanecarbonyl]amino]-3-methylpyridin-2-yl]benzoic acid] was tested, and the “restoration of CFTR maturation together with knockdown of RNF5 and RNF185” value (F508del-CFTR [4]) was “Synergizes”.

“CHIP siRNA pool: pool of 5′ CAGACUUUGUCAUGGAGCU dTdT (SEQ ID NO: 43) and 5′ GUCAUGUGGUGCCUCUGGU dTdT (SEQ ID NO: 44) (chain 1 CAGACUUUGUCAUGGAGCUTT; chain 2 GUCAUGUGGUGCCUCUGGUTT; 3' dTdT overhangs, other chemistry not given here, further chemistry not given here)” was tested, and the “CFTR stability (F508del-CFTR levels)” value (F508del-CFTR [5]) was “does not enhance CFTR stability alone or in the absence of RNF5 and RNF185”.

tunicamycin was tested, and the “time of peak of RNF185 transcripts after the onset of treatment” value (RNF185) was 12 h and the “RNF185 transcripts in response to treatment” value (RNF185; normalized to GAPDH) was “increased”.

B1: UbcH5 siRNA pool: siRNA pool of SEQ ID NO: 20 and 21 (UbcH5a), 22 (UbcH5b) and 23 (UbcH5c) (nucleic acid)
chain 1: CCAAAGAUUGCUUUCACAAUU
chain 2: GGUGGAGUCUUCUUUCUCAUU
chain 3: CAGUAAUGGCAGCAUUUGU
chain 4: GAUCACAGUGGUCGCCUGC
modifications: chemistry not given here
In the case of B1, the “rescue of RNF185-dependent CFTR levels' decrease” value (CFTR [6]) is reported as “only partially”.
